How the values were obtained:
[1] = biological target: T1, 5-HT1A receptor (Homo sapiens, UniProt P08908); test: cAMP-Glo assay of 5-HT1A activation in +5-HT1A cells (CHO-K1/5-HT1A/Gα15); assay type: cell-based; conditions: for 5-HT1A activity from luminescence (cAMP) trend: +5HT1A cell culture, FIG. 14B, 14C; for 5-HT1A binding activity from % cAMP levels trend: +5HT1A cell cultures
T1 construct: host or cells: CHO-K1 stably expressing 5-HT1A and Gα15
T1 sequence (P08908 1-422): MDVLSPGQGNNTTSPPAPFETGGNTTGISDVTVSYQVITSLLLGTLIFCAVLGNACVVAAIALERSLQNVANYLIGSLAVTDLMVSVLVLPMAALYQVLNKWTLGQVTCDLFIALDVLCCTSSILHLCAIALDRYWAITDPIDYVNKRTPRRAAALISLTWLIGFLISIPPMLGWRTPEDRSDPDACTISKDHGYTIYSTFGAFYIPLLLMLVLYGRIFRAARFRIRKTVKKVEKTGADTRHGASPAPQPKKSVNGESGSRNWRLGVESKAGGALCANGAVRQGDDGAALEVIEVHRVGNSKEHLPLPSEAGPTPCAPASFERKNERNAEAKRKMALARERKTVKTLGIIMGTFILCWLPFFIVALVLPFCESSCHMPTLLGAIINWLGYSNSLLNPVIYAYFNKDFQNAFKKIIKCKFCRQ
Text: (§1) CHO-K1/Gα15 (GenScript, M00257) (−5-HT1A) and CHO-K1/5-HT1A/Gα15 (GenScript, M00330) (+5-HT1A) cells lines were used. Briefly, CHO-K1/Gα15 is a control cell line that constitutively expresses Gα15 which is a promiscuous Gq protein. This control cell line lacks any transgene encoding 5-HT1A receptors, but still responds to forskolin; thus, cAMP response to forskolin should be the same regardless of whether or not 5-HT1A agonists are present. Conversely, CHO-K1/5-HT1A/Gα15 cells stably express 5-HT1A receptor in the CHO-K1 host background. […] In +5-HT1A cells, Gα15 may be recruited in place of Gαi/o, which could theoretically dampen cAMP response (Rojas and Fiedler 2016, Front Cell Neurosci 10: 272). […] In contrast, tryptophan is not known to activate 5-HT1A receptors, and was thus used as a negative control. Cells were maintained in complete growth media as recommended by supplier (GenScript) which is constituted as follows: Ham's F12 Nutrient mix (HAM's F12, GIBCO #11765-047) with 10% fetal bovine serum (FBS) (Thermo Scientific #12483020), 200 μg/ml zeocin (Thermo Scientific #R25005) and/or 100 μg/ml hygromycin (Thermo Scientific #10687010). The cells were cultured in a humidified incubator with 37° C. and 5% CO2. Cells maintenance was carried out as recommended by the cell supplier. Briefly, vials with cells were removed from the liquid nitrogen and thawed quickly in 37° C. water bath. Just before the cells were completely thawed the vial's outside was decontaminated by 70% ethanol spray. The cell suspension was then retrieved from the vial and added to warm (37° C.) complete growth media, and centrifuged at 1,000 rpm for 5 minutes. The supernatant was discarded, and the cell pellet was then resuspended in another 10 ml of complete growth media, and added to the 10 cm cell culture dish (Greiner Bio-One #664160). The media was changed every third day until the cells were about 90% confluent. The ˜90% confluent cells were then split 10:1 for maintenance or used for experiment.
The change in intracellular cAMP levels due to the treatment of novel molecules was measured using cAMP-Glo Assay kit (Promega #V1501). Briefly, +5-HT1A cells were seeded on 1-6 columns and base −5-HT1A cells were seeded on columns 7-12 of the white walled clear bottom 96-well plate (Corning, #3903). Both cells were seeded at the density of 30,000 cells/well in 100 μl complete growth media and cultured 24 hrs in humidified incubator at 37° C. and 5% CO2. On the experiment day, the media of cells was replaced with serum/antibiotic free culture media. Then the cells were treated for 20 minutes with test molecules dissolved in induction medium ([…], 500 μM IBMX (isobutyl-1-methylxanthine, Sigma-Aldrich, Cat. #17018) and 100 μM (RO 20-1724, Sigma-Aldrich, Cat. #B8279)). Forskolin induced cAMP formation whereas IBMX and RO 20-1724 inhibited the degradation of cAMP. PKA was added to the lysate, mixed, and subsequently the substrate of the PKA was added. PKA was activated by cAMP, and the amount of ATP consumed due to PKA phosphorylation directly corresponded to cAMP levels in the lysate. Reduced ATP caused reduced conversion of luciferin to oxyluciferin, conferring diminished luminescence as the result of 5-HT1A activation. […] Note that compound (VI) is shown simply as (VI) along the x-axis. For FIGS A-C, error bars represent results of three experiments (n=3).

[2] = test system: CHO-K1/Gα15 (−5-HT1A) cells; test: cAMP-Glo assay in −5-HT1A control cells (CHO-K1/Gα15); assay type: cell-based; conditions: −5HT1A cell cultures (control without 5-HT1A receptor); FIG. 14D-14F
Text: as §1, with “The cell suspension was then retrieved from the vial and added to warm (37° C.) complete growth media, and centrifuged at 1,000 rpm for 5 minutes. The supernatant was discarded, and the cell pellet was then resuspended in another 10 ml of complete growth media, and added to the 10 cm cell culture dish (Greiner Bio-One #664160). The media was changed every third day until the cells were about 90% confluent. The ˜90% confluent cells were then split 10:1 for maintenance or used for experiment.” left out
As 5-HT1A activation inhibits cAMP formation, the agonist activity of test molecules on 5-HT1A was measured via the reduction in the levels of cAMP produced due to application of 4 μM forskolin. The change in intracellular cAMP levels due to the treatment of novel molecules was measured using cAMP-Glo Assay kit (Promega #V1501). […] Reduced ATP caused reduced conversion of luciferin to oxyluciferin, conferring diminished luminescence as the result of 5-HT1A activation. […]

[3] = biological target: T2, 5-HT2A receptor (Homo sapiens, UniProt P28223); test: [3H]ketanserin competition binding assay (SPA) on membranes containing 5-HT2A; conditions: fixed (1 nM) [3H]ketanserin; FIG. 13B, 13C
T2 construct: purchased PerkinElmer ES-313-M400UA
Text: Evaluation of drug binding is an essential step to characterization of all drug-target interactions (Fang 2012, Exp Opin Drug Discov 7:969). The binding affinity of a drug to a target is traditionally viewed as an acceptable surrogate of its in vivo efficacy (Núñez et al., 2012, Drug Disc Today 17: 10). Competition assays, also called displacement or modulation binding assays, are a common approach to measure activity of a ligand at a target receptor (Flanagan 2016, Methods Cell Biol 132: 191). In these assays, standard radioligands acting either as agonists or antagonists are ascribed to specific receptors. […] After incubation, the samples were read on a MicroBeta 2 Microplate Counter (Perkin Elmer). […] Equilibrium binding constants for ketanserin (Kd) were determined from saturation binding curves using the ‘one-site saturation binding analysis’ method of GraphPad PRISM software (Version 9.2.0). […] Ki values were calculated from the competition displacement data using the competitive binding analysis from GraphPad PRISM software. […] Specific binding in counts per minute (cpm) was calculated by subtracting non-specific binding from total binding. Specific binding (pmol/mg) was calculated from μmol of [^3H]ketanserin bound per mg of protein in the assay. The Kd was calculated by fitting the data with the one-site binding model of PRISM software (version 9.2.0).

[4] = fixed (4 μM) forskolin, decreasing dosages of ligand
[5] = fixed (4 μM) forskolin, decreasing dosages of ligand, FIG. 14D, 14E

T2 sequence (P28223 whole entry): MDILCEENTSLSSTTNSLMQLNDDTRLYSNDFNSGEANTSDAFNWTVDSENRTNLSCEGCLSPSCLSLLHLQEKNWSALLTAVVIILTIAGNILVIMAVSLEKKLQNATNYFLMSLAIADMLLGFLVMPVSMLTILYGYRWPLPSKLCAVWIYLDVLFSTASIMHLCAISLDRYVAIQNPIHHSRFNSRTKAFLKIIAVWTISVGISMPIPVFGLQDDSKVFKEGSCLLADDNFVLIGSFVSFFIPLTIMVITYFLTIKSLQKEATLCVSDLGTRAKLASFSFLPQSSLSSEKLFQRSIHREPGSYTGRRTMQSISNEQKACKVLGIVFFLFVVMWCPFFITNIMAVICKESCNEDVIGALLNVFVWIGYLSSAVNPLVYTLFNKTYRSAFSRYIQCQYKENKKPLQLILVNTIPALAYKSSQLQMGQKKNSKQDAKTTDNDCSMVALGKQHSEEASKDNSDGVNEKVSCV

Compound	5-HT1A activity from luminescence (cAMP) trend [1, 4]	5-HT1A binding activity from % cAMP levels trend [1, 5]	trend of increasing % cAMP levels with decreasing compound [2]	competition binding curve versus [3H]ketanserin [3]	further results
CN(C)CCc1c[nH]c2ccccc12 [DMT]	5-HT1A activity	–	–	–	–
COc1ccc(C(=O)O)c2[nH]cc(CCN)c12 [compound (VI)]	–	mild 5-HT1A binding activity	not observed	–	–
NCCc1c[nH]c2c(C(=O)O)ccc(O)c12 [compound (VII)]	–	–	not observed	–	5-HT1A binding activity from % cAMP levels trend ([1]; decreasing dosages of compound, FIG. 14F): 5-HT1A binding activity
CN(C)CCc1c[nH]c2cccc(O)c12 [psilocin]	–	–	–	binding	–
NCCc1c[nH]c2ccc(O)cc12 [serotonin]	–	5-HT1A binding activity	not observed	–	–
N[C@@H](Cc1c[nH]c2ccccc12)C(=O)O [tryptophan]	lack of 5-HT1A activity	–	–	no binding	–

— patent publication US12605361B2, “Carboxylated psilocybin derivatives and methods of using” (Enveric Biosciences Canada Inc., priority 2020, dated 2026)
